In US20170042915A1, “LPA RECEPTOR MODULATORS FOR BROWN FAT DIFFERENTIATION” (The California Institute for Biomedical Research, priority 2015, published 2017):

What was measured:
[1] = test system: Human Simpson-Golabi-Behmel syndrome (SGBS) preadipocytes; test: Brown cell differentiation of SGBS preadipocytes, high content imaging with anti-UCP1 and LipidTox staining; format: cell-based; details: concentration not given; for % Brown (adipocytes): day 11, LipidTox and UCP1 positive; for % White (adipocytes): day 11, LipidTox positive, below UCP1 threshold; for UCP1 fold: day 11, UCP1 staining
Experimental: OF Media included 1% Anti-Anti, […] biotin, […] panthotenate, and DMEM:F12 (1:1) media. Growth media included OF Media and 10% Fetal Bovine Serum. Differentiation induction media included OF Media, 10 μg/mL Insulin, 0.5 mM IBMX, and 1 μM Dexamethasone. The maintenance media included OF media and 10 μg/mL Insulin.
Human Simpson-Golabi-Behmel syndrome (SGBS) preadipocyteswere cultured in T225 flasks containing Growth Media. Upon passaging, cells were trypsinized, collected, spun down at 1250 g for 5 minutes at 20° C. to pellet. Cells were then resuspended in growth media before seeding cells at optimal density to maintain 75-80% confluency before passaging every 3-4 days.
Compounds at varying concentrations (starting at 20 uM with 1:3 dilution) were spotted onto 384-well black clear bottom plates (Greiner). The negative control consisted of DMSO while positive controls contained 2 uM of Rosiglitazone (Cayman). 50 μL of SGBS cells in induction were seeded directly on top of compound at a concentration of 1.1×10^5 cells/mL (˜5500 cells/well). After 4 days of induction, media was changed to 50 μL of maintenance media. Every 2-4 days after, media was changed again with 50 μL maintenance media until day 11.
After 11 days of differentiation, cells were fixed with 10 μL of 32% Paraformaldehyde for 10 minutes, followed by 10 μL of 7% Triton X-100 for another 10 minutes. Media was then aspirated down to 5 μL, 25 μL of Blocking Buffer 1 (2% BSA and 2.5% goat serum) was added, and plates were incubated for 1 hour. Plates were then aspirated down to 5 μL and 25 μL of primary antibody was added for 16 hour incubation. Primary antibody containing UCP1 (Sigma; Rabbit; 1:100) was diluted in Blocking Buffer 2 (2% BSA).
The next day, plates were washed 3 times with 1× PBS and 25 μL of secondary antibody were added. Secondary antibody containing Hoechst (1:6000), Alex Fluor 647 goat Anti-Rabbit (1:1000), and HCS LipidTOX Green Neutral Lipid Stain (Life Technologies; 1:800) were diluted in Blocking Buffer 2 (2% BSA). After 1 hour of incubation at room temperature, plates were washed 3 times with 1× PBS and left in 50 μL of PBS. Plates were then sealed and imaged.
Plates were imaged using CellInsight CX5 High Content Screening (HCS) Platform. Total cell number was detected using Hoechstand images were used to quantify total adipocytes (met defined threshold of lipidtox staining intensity).

SGBS preadipocytes = test: Brown adipocyte differentiation of SGBS preadipocytes with or without exogenous LPA; format: cell-based, human; details: day 11 SGBS adipocytes, compound during days 3-4 of induction, 10 μM LPA during days 1-4; FIG. 6A
Experimental: SGBS preadipocytes were plated in 384 plates as previously described but using induction media with or without the addition of 10 μM lysophosphatidic acid (LPA) for the first 2 days. On day 3, cells were treated with 10 μL of 6× concentration of compound 19 (final concentration was a 1:3 serial dilution starting at 20 μM) again with or without the addition of LPA. On day 5, media was changed to maintenance media until day 11. Staining and analysis of brown adipocytes based on UCP1 and lipid performed as described previously.

| SMILES | % Brown (adipocytes) ([1]; 1st of 3 sub-columns) [%] | % Brown (adipocytes) ([1]; 2nd of 3 sub-columns) [%] | % Brown (adipocytes) ([1]; 3rd of 3 sub-columns) [%] | % White (adipocytes) ([1]; 1st of 3 sub-columns) [%] | % White (adipocytes) ([1]; 2nd of 3 sub-columns) [%] | % White (adipocytes) ([1]; 3rd of 3 sub-columns) [%] | UCP1 fold ([1]; 1st of 3 sub-columns) [x] | UCP1 fold ([1]; 2nd of 3 sub-columns) [x] | UCP1 fold ([1]; 3rd of 3 sub-columns) [x] | induction of brown adipocyte differentiation in the presence of exogenous LPA (SGBS preadipocytes) |
| --- | --- | --- | --- | --- | --- | --- | --- | --- | --- | --- |
| Cc1ccc(NS(=O)(=O)c2ccc(-c3c(C)noc3C)cc2)cc1Cl [Compound 11] | 18 | 22 | 24 | 4 | 6 | 11 | 1.7 | 1.8 | 1.7 |  |
| Cc1sc(-c2noc(C3CCC3)n2)cc1S(=O)(=O)N1CCC(C(=O)NCc2ccco2)CC1 [Compound 4] | 17 | 22 | 30 | 5 | 7 | 5 | 1.5 | 1.6 | 2.6 |  |
| COC(=O)CCSCc1ccc(-c2onc(C)c2NC(=O)OC(C)c2ccccc2Cl)cc1 (stereo not shown) [Compound 19] |  |  |  |  |  |  |  |  |  | attenuated induction of brown adipocyte differentiation |
| Cc1sc(-c2noc(C(C)C)n2)cc1S(=O)(=O)N1CCC(C(=O)N(C)Cc2ccco2)CC1 [Compound 6] | 14 | 23 | 29 | 6 | 6 | 5 | 1.2 | 1.7 | 2.4 |  |
| Cc1ccc(C)c(-c2csc(Nc3ccc(S(=O)(=O)Nc4cc(C)on4)cc3)n2)c1 [Compound 9] | 18 | 21 | 31 | 5 | 6 | 6 | 1.5 | 1.9 | 2.7 |  |
| COC(=O)c1ccc(NS(=O)(=O)c2ccc(-c3c(C)noc3C)cc2)cc1 [Compound 10] | 17 | 21 | 29 | 6 | 8 | 10 | 1.5 | 1.5 | 2.0 |  |
| Cc1nn(-c2ccccc2)c(C)c1S(=O)(=O)N1CCC(C(=O)NCCc2cccs2)CC1 [Compound 3] | 20 | 28 | 30 | 10 | 8 | 5 | 1.6 | 2.1 | 2.9 |  |
| Cc1ccc(CNC(=O)C2CCN(S(=O)(=O)c3cc(-c4noc(C5CC5)n4)sc3C)CC2)o1 [Compound 1] | 15 | 27 | 30 | 6 | 3 | 4 | 1.2 | 2.6 | 2.7 |  |
| Cc1sc(-c2noc(C(C)C)n2)cc1S(=O)(=O)N1CCC(C(=O)NCc2cccs2)CC1 [Compound 5] | 18 | 22 | 28 | 3 | 7 | 7 | 1.8 | 1.8 | 2.2 |  |
| Cc1nc(-c2cc(S(=O)(=O)N3CCC(C(=O)NCCc4cccs4)CC3)c(C)s2)no1 [Compound 2] | 29 | 34 | 34 | 9 | 8 | 7 | 2.2 | 2.8 | 2.9 |  |
